Patent publication US20230085307A1, “PYRIDAZINONE COMPOUND AND HERBICIDE” (NISSAN CHEMICAL CORPORATION, priority 2019, published 2023)

What follows are compounds tested on chickweed (assay: Test Example 4: herbicidal effect by soil treatment (Table 19, symbol P)). Conditions: amount of applied herbicide 320 g/ha.
Assay type: in vivo, common chickweed (Stellaria media)
How it was run: (§1)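 Three weeks of greenhouse growth at 25° C. to 30° C. followed a uniform surface spray of water-diluted emulsion at a predetermined herbicide amount. Seeds had been sown beforehand under about 1.5 cm of sterilized diluvial soil. Grading followed criteria set out in an earlier test.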

Row | Structure (SMILES) | herbicidal effect on P: chickweed
1 | COCC(=O)Oc1c(C)nn(C)c(=O)c1-c1c(-c2ccc(OC(F)F)cc2)sc2ccc(F)cc12 [2-283] | 4 (Herbicidal rate of 70% or more and less than 90%)
2 | Cc1nn(C)c(=O)c(-c2c(-c3ccc(OC(F)F)cc3)sc3ccc(F)cc23)c1OC(=O)c1ccc(Cl)cc1 [2-286] | 0 (Herbicidal rate of 5% or less (almost no effect))

What follows are compounds tested on velvetleaf (assay: Test Example 5: herbicidal effect by foliage application, plastic box (Table 20, symbol M)). Conditions: foliage application, AAH 320 g/ha, evaluated three weeks after application.
Assay type: in vivo, velvetleaf (Abutilon theophrasti)
How it was run: (§2)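 Plants sown in sterilized diluvial soil and grown 14 days in a greenhouse at 25° C to 30° C, then sprayed on the foliage with the compound's emulsion diluted in water to a predetermined herbicide amount. Injury to weeds and crops scored three weeks after application on a visual rating scale.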

Row | Structure (SMILES) | M: velvetleaf, herbicidal effect (criteria 0-5)
3 | COCC(=O)Oc1c(C)nn(C)c(=O)c1-c1c(-c2ccc(OC(F)F)cc2)sc2ccc(F)cc12 [2-283] | 5 (Herbicidal rate of 90% or more (almost completely withered))
4 | Cc1nn(C)c(=O)c(-c2c(-c3ccc(OC(F)F)cc3)sc3ccc(F)cc23)c1OC(=O)c1ccc(Cl)cc1 [2-286] | 5 (Herbicidal rate of 90% or more (almost completely withered))

What follows are compounds tested on velvetleaf (assay: Test Example 4: herbicidal effect by soil treatment (Table 19, symbol M)). Conditions: amount of applied herbicide 320 g/ha.
Assay type: in vivo, velvetleaf (Abutilon theophrasti)
How it was run: as §1

Row | Structure (SMILES) | herbicidal effect on M: velvetleaf
5 | COCC(=O)Oc1c(C)nn(C)c(=O)c1-c1c(-c2ccc(OC(F)F)cc2)sc2ccc(F)cc12 [2-283] | 5 (Herbicidal rate of 90% or more (almost completely withered))
6 | Cc1nn(C)c(=O)c(-c2c(-c3ccc(OC(F)F)cc3)sc3ccc(F)cc23)c1OC(=O)c1ccc(Cl)cc1 [2-286] | 0 (Herbicidal rate of 5% or less (almost no effect))

The compounds below were run on oval-leafed pondweed (assay: Test Example 1: herbicidal activity, application before weed generation under submerged conditions (Table 16, symbol C)). Conditions: 320 g/ha applied herbicide.
Assay type: in vivo, oval-leafed pondweed (Monochoria vaginalis)
How it was run: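 Submerged Wagner pots (alluvial soil, 4 cm water) sown with weed seeds and planted with 2.5-leaf rice seedlings; emulsifiable concentrate diluted in water applied to water surface on sowing day. Held in greenhouse at 25-30 °C; injury scored 0-5 by herbicidal rate after three weeks.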

Row | Structure (SMILES) | Herbicidal effect on C: oval-leafed pondweed (grade 0-5)
7 | COCC(=O)Oc1c(C)nn(C)c(=O)c1-c1c(-c2ccc(OC(F)F)cc2)sc2ccc(F)cc12 [2-283] | 3 (Herbicidal rate of 40% or more and less than 70%)
8 | Cc1nn(C)c(=O)c(-c2c(-c3ccc(OC(F)F)cc3)sc3ccc(F)cc23)c1OC(=O)c1ccc(Cl)cc1 [2-286] | 1 (Herbicidal rate of 5% or more and less than 20%)

These compounds were tested on windgrass (assay: Test Example 5: herbicidal effect by foliage application, plastic box (Table 20, symbol L)). Conditions: foliage application, AAH 320 g/ha, evaluated three weeks after application.
Assay type: in vivo, windgrass (Apera spica-venti)
How it was run: as §2

Row | Structure (SMILES) | L: windgrass, herbicidal effect (criteria 0-5)
9 | COCC(=O)Oc1c(C)nn(C)c(=O)c1-c1c(-c2ccc(OC(F)F)cc2)sc2ccc(F)cc12 [2-283] | 5 (Herbicidal rate of 90% or more (almost completely withered))
10 | Cc1nn(C)c(=O)c(-c2c(-c3ccc(OC(F)F)cc3)sc3ccc(F)cc23)c1OC(=O)c1ccc(Cl)cc1 [2-286] | 0 (Herbicidal rate of 5% or less (almost no effect))

The compounds below were run on blackgrass (assay: Test Example 4: herbicidal effect by soil treatment (Table 19, symbol J)). Conditions: amount of applied herbicide 320 g/ha.
Assay type: in vivo, blackgrass (Alopecurus myosuroides)
How it was run: as §1

Row | Structure (SMILES) | herbicidal effect on J: blackgrass
11 | COCC(=O)Oc1c(C)nn(C)c(=O)c1-c1c(-c2ccc(OC(F)F)cc2)sc2ccc(F)cc12 [2-283] | 3 (Herbicidal rate of 40% or more and less than 70%)
12 | Cc1nn(C)c(=O)c(-c2c(-c3ccc(OC(F)F)cc3)sc3ccc(F)cc23)c1OC(=O)c1ccc(Cl)cc1 [2-286] | 0 (Herbicidal rate of 5% or less (almost no effect))

The compounds below were run on Japanese bulrush (assay: Test Example 2: herbicidal activity, application during weed generation under submerged conditions (Table 17, symbol B)). Conditions: AAH 320 g/ha; application during weed generation, submerged conditions.
Assay type: in vivo, Japanese bulrush (Schoenoplectus juncoides)
How it was run: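 Steps: fill Wagner pots with alluvial soil; add water to give 4 cm depth; sow the species mixed; grow under glass at 25–30° C.; at 1–2 leaves apply water-diluted emulsion formulation to the water surface at a fixed herbicide amount; score after 3 weeks.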

Row | Structure (SMILES) | herbicidal effect rating, B: Japanese bulrush
13 | COCC(=O)Oc1c(C)nn(C)c(=O)c1-c1c(-c2ccc(OC(F)F)cc2)sc2ccc(F)cc12 [2-283] | 3 (Herbicidal rate of 40% or more and less than 70%)
14 | Cc1nn(C)c(=O)c(-c2c(-c3ccc(OC(F)F)cc3)sc3ccc(F)cc23)c1OC(=O)c1ccc(Cl)cc1 [2-286] | 3 (Herbicidal rate of 40% or more and less than 70%)

What follows are compounds tested on lambsquarters (assay: Test Example 5: herbicidal effect by foliage application, plastic box (Table 20, symbol O)). Conditions: foliage application, AAH 320 g/ha, evaluated three weeks after application.
Assay type: in vivo, lambsquarters (Chenopodium album)
How it was run: as §2

Row | Structure (SMILES) | O: lambsquarters, herbicidal effect (criteria 0-5)
15 | COCC(=O)Oc1c(C)nn(C)c(=O)c1-c1c(-c2ccc(OC(F)F)cc2)sc2ccc(F)cc12 [2-283] | 5 (Herbicidal rate of 90% or more (almost completely withered))
16 | Cc1nn(C)c(=O)c(-c2c(-c3ccc(OC(F)F)cc3)sc3ccc(F)cc23)c1OC(=O)c1ccc(Cl)cc1 [2-286] | 5 (Herbicidal rate of 90% or more (almost completely withered))

Each compound was assayed on lambsquarters (assay: Test Example 4: herbicidal effect by soil treatment (Table 19, symbol O)). Conditions: amount of applied herbicide 320 g/ha.
Assay type: in vivo, lambsquarters (Chenopodium album)
How it was run: as §1

Row | Structure (SMILES) | herbicidal effect on O: lambsquarters
17 | COCC(=O)Oc1c(C)nn(C)c(=O)c1-c1c(-c2ccc(OC(F)F)cc2)sc2ccc(F)cc12 [2-283] | 5 (Herbicidal rate of 90% or more (almost completely withered))
18 | Cc1nn(C)c(=O)c(-c2c(-c3ccc(OC(F)F)cc3)sc3ccc(F)cc23)c1OC(=O)c1ccc(Cl)cc1 [2-286] | 3 (Herbicidal rate of 40% or more and less than 70%)

What follows are compounds tested on green foxtail (assay: Test Example 4: herbicidal effect by soil treatment (Table 19, symbol G)). Conditions: amount of applied herbicide 320 g/ha.
Assay type: in vivo, green foxtail (Setaria viridis)
How it was run: as §1

Row | Structure (SMILES) | herbicidal effect on G: green foxtail
19 | COCC(=O)Oc1c(C)nn(C)c(=O)c1-c1c(-c2ccc(OC(F)F)cc2)sc2ccc(F)cc12 [2-283] | 5 (Herbicidal rate of 90% or more (almost completely withered))
20 | Cc1nn(C)c(=O)c(-c2c(-c3ccc(OC(F)F)cc3)sc3ccc(F)cc23)c1OC(=O)c1ccc(Cl)cc1 [2-286] | 3 (Herbicidal rate of 40% or more and less than 70%)

What follows are compounds tested on Italian ryegrass (assay: Test Example 5: herbicidal effect by foliage application, plastic box (Table 20, symbol K)). Conditions: foliage application, AAH 320 g/ha, evaluated three weeks after application.
Assay type: in vivo, Italian ryegrass (Lolium multiflorum)
How it was run: as §2

Row | Structure (SMILES) | K: Italian ryegrass, herbicidal effect (criteria 0-5)
21 | COCC(=O)Oc1c(C)nn(C)c(=O)c1-c1c(-c2ccc(OC(F)F)cc2)sc2ccc(F)cc12 [2-283] | 5 (Herbicidal rate of 90% or more (almost completely withered))
22 | Cc1nn(C)c(=O)c(-c2c(-c3ccc(OC(F)F)cc3)sc3ccc(F)cc23)c1OC(=O)c1ccc(Cl)cc1 [2-286] | 5 (Herbicidal rate of 90% or more (almost completely withered))

What follows are compounds tested on persian speedwell (assay: Test Example 4: herbicidal effect by soil treatment (Table 19, symbol R)). Conditions: amount of applied herbicide 320 g/ha.
Assay type: in vivo, Persian speedwell (Veronica persica)
How it was run: as §1

Row | Structure (SMILES) | herbicidal effect on R: persian speedwell
23 | COCC(=O)Oc1c(C)nn(C)c(=O)c1-c1c(-c2ccc(OC(F)F)cc2)sc2ccc(F)cc12 [2-283] | 5 (Herbicidal rate of 90% or more (almost completely withered))
24 | Cc1nn(C)c(=O)c(-c2c(-c3ccc(OC(F)F)cc3)sc3ccc(F)cc23)c1OC(=O)c1ccc(Cl)cc1 [2-286] | 3 (Herbicidal rate of 40% or more and less than 70%)

Each compound was assayed on southern crabgrass (assay: Test Example 4: herbicidal effect by soil treatment (Table 19, symbol F)). Conditions: amount of applied herbicide 320 g/ha.
Assay type: in vivo, southern crabgrass (Digitaria ciliaris)
How it was run: as §1

Row | Structure (SMILES) | herbicidal effect on F: southern crabgrass
25 | COCC(=O)Oc1c(C)nn(C)c(=O)c1-c1c(-c2ccc(OC(F)F)cc2)sc2ccc(F)cc12 [2-283] | 5 (Herbicidal rate of 90% or more (almost completely withered))
26 | Cc1nn(C)c(=O)c(-c2c(-c3ccc(OC(F)F)cc3)sc3ccc(F)cc23)c1OC(=O)c1ccc(Cl)cc1 [2-286] | 0 (Herbicidal rate of 5% or less (almost no effect))

The compounds below were run on chickweed (assay: Test Example 5: herbicidal effect by foliage application, plastic box (Table 20, symbol P)). Conditions: foliage application, AAH 320 g/ha, evaluated three weeks after application.
Assay type: in vivo, common chickweed (Stellaria media)
How it was run: as §2

Row | Structure (SMILES) | P: chickweed, herbicidal effect (criteria 0-5)
27 | COCC(=O)Oc1c(C)nn(C)c(=O)c1-c1c(-c2ccc(OC(F)F)cc2)sc2ccc(F)cc12 [2-283] | 5 (Herbicidal rate of 90% or more (almost completely withered))
28 | Cc1nn(C)c(=O)c(-c2c(-c3ccc(OC(F)F)cc3)sc3ccc(F)cc23)c1OC(=O)c1ccc(Cl)cc1 [2-286] | 5 (Herbicidal rate of 90% or more (almost completely withered))

Each compound was assayed on redroot pigweed (assay: Test Example 5: herbicidal effect by foliage application, plastic box (Table 20, symbol N)). Conditions: foliage application, AAH 320 g/ha, evaluated three weeks after application.
Assay type: in vivo, redroot pigweed (Amaranthus retroflexus)
How it was run: as §2

Row | Structure (SMILES) | N: redroot pigweed, herbicidal effect (criteria 0-5)
29 | COCC(=O)Oc1c(C)nn(C)c(=O)c1-c1c(-c2ccc(OC(F)F)cc2)sc2ccc(F)cc12 [2-283] | 5 (Herbicidal rate of 90% or more (almost completely withered))
30 | Cc1nn(C)c(=O)c(-c2c(-c3ccc(OC(F)F)cc3)sc3ccc(F)cc23)c1OC(=O)c1ccc(Cl)cc1 [2-286] | 5 (Herbicidal rate of 90% or more (almost completely withered))

The compounds below were run on wild oat (assay: Test Example 4: herbicidal effect by soil treatment (Table 19, symbol I)). Conditions: amount of applied herbicide 320 g/ha.
Assay type: in vivo, wild oat (Avena fatua)
How it was run: as §1

Row | Structure (SMILES) | herbicidal effect on I: wild oat
31 | COCC(=O)Oc1c(C)nn(C)c(=O)c1-c1c(-c2ccc(OC(F)F)cc2)sc2ccc(F)cc12 [2-283] | 0 (Herbicidal rate of 5% or less (almost no effect))
32 | Cc1nn(C)c(=O)c(-c2c(-c3ccc(OC(F)F)cc3)sc3ccc(F)cc23)c1OC(=O)c1ccc(Cl)cc1 [2-286] | 0 (Herbicidal rate of 5% or less (almost no effect))

The compounds below were run on barnyard grass (assay: Test Example 4: herbicidal effect by soil treatment (Table 19, symbol H)). Conditions: amount of applied herbicide 320 g/ha.
Assay type: in vivo, barnyard grass (Echinochloa crus-galli)
How it was run: as §1

Row | Structure (SMILES) | herbicidal effect on H: barnyard grass
33 | COCC(=O)Oc1c(C)nn(C)c(=O)c1-c1c(-c2ccc(OC(F)F)cc2)sc2ccc(F)cc12 [2-283] | 5 (Herbicidal rate of 90% or more (almost completely withered))
34 | Cc1nn(C)c(=O)c(-c2c(-c3ccc(OC(F)F)cc3)sc3ccc(F)cc23)c1OC(=O)c1ccc(Cl)cc1 [2-286] | 1 (Herbicidal rate of 5% or more and less than 20%)
